Test results from patent publication US10428030B2, “Heterocycle derivatives and their use for the treatment of CNS disorders” (Trillium Therapeutics Inc., priority 2015, dated 2019).

Legend:
MTLE mice = assay: Model of mesial temporal lobe epilepsy (mTLE), hippocampal paroxysmal discharges; type: in vivo, mouse; details: for Effect (% baseline): HPD; for Effect (% baseline) / Mean HPD Counts: mice 4 weeks after intra-hippocampal KA
From the text: The MTLE mouse model recapitulates many of the characteristics observed in human patients with temporal lobe epilepsy (TLE). The MTLE mouse is characterized by an initial neurotoxic event, a unilateral intrahippocampal injection of kainic acid (KA) into the dorsal hippocampus, which induces non-convulsive SE lasting several hours. This initial event is followed by a latent phase. Two to three weeks after KA injection, spontaneous recurrent hippocampal paroxysmal discharges (HPD) are only recorded in the epileptic hippocampus and remain stable and stereotyped for the whole life of the animal. These HPDs occur spontaneously about 30-60 times per hour when the animals are in a state of quiet wakefulness, generally last 15-20 sec and are associated with behavioral arrest and/or mild motor automatisms. Adult, male […] mice are stereotaxically injected with kainate (1 nmol in 100 nL) and implanted with 1 bipolar electrode in the dorsal hippocampus, and then allowed to recover for four weeks prior to evaluation in the screening protocol. Using a group size of 4 MTLE mice per dose of investigational compound, the compounds are typically first tested using the 6 Hz 44 mA ED50 value. […] For all acute studies, drug conditions are counter-balanced in MTLE mice over a two week period using a Latin square dosing protocol. Animals are used as their own controls. Digital EEG recordings are performed on freely moving animals for 20 minutes pre-injection (reference period) and 90 minutes post-injection. Data are analyzed for the period of 10 minutes before and 10 minutes after peak time of effect of the investigational compound, as determined from the 6 Hz 44 mA seizure test. The effects of the injected compound are compared to the reference period. Any accompanying effect on animal behavior is noted. Data are presented as the raw number of HPDs during the analyzed 20 min period (10 minutes before and 10 minutes after peak time of effect of compound) for each MTLE mouse, group mean number of HPDs, and effect on suppression as represented by percent of baseline HPD values.

[1] = Fixed speed rotorod, gross motor function (rat); details: male, Sprague-Dawley, in vivo, po
Method: On the test day following a defined drug pretreatment period, rats received a maximal electroshock (150 mA, 0.2 s duration, 60 Hz) via corneal electrodes. Protection was defined as absence of a full tonic seizure within 10 s of stimulus delivery. Twenty minutes before the MES procedure, the animals were tested on a fixed speed rotorod (best score from 3 trials at 8 r.p.m, trial duration=60 s) to give an early assessment of drug effect on gross motor function.

[2] = test system: Male, Sprague-Dawley rats; assay: Spinal Nerve Injury (SNI) model (neuropathic pain); type: in vivo, rat; details: 60 mg/kg i.p.
From the text: The SNI model of neuropathic pain was developed in rats using the procedure described by Decostered and Woolf, Pain 2000, 87: 149-158. Under isoflurane anesthesia, the skin on the lateral surface of the thigh was incised and a section was made directly through the biceps femoris muscle exposing the sciatic nerve and its three terminal branches: the sural, common peroneal and tibial nerves. The common peroneal and the tibial nerves were tight-ligated with 6-0 suture and sectioned distal to the ligation, removing 2-4 mm of the distal nerve stump. Extreme care was taken to avoid any contact with or stretching of the intact sural nerve. Following surgery, hemostasis was confirmed and the muscles were sutured in layers using 4-0 suture and the skin was closed with 4-0 suture and metal clips.
Male, Sprague-Dawley rats were used. Testing of compounds was done 21 days post-operatively. After initial basal readings were taken, the test compound or vehicle was administered. The readings were taken again 30, 60 and 180 min after the compound/vehicle administration. Both the control (uninjured) and the SNI paw were tested. The presence of mechanical allodynia was assessed using the Dynamic Plantar Aesthesiometer (Ugo Basile, Italy) which is a modified version of the Von Frey Hair test. […] A single reading was taken per timepoint. […]
Cold allodynia was assessed by using the acetone test. […]

[3] = test system: Frings audiogenic seizure-susceptible mice; assay: Frings audiogenic seizure (AGS)-susceptible mouse model; type: in vivo
From the text: Frings audiogenic seizure (AGS)-susceptible mice model examines the ability of an investigational drug to alter the onset and/or severity of seizures in a genetic mouse model of seizure susceptibility. Mice are genetically susceptible to sound-induced reflex seizures. Their seizure phenotype is characterized by wild running, loss of righting reflex, tonic flexion, and tonic extension in response to high-intensity sound stimulation. […] For example, the prototypical anticonvulsants phenytoin and ethosuximide display widely divergent clinical spectrums in humans, but are both active against sound-induced seizures in mice. Yet, the preclinical utility of this animal model rests in the useful information that can be obtained within a genetically susceptible model of seizures. Further, efficacy in this model provides proof of concept of brain bioavailability following systemic administration. The Frings AGS-susceptible mouse has a well-validated epilepsy phenotype that makes it particularly useful as a screening model. Beginning at about 21 days of age, Frings AGS-susceptible mice display prominent seizure activity in response to a high-intensity sound stimulus. They then remain susceptible to sound throughout their life. This is in stark contrast to the DBA2J AGS-susceptible mouse, which is the other common model of sound-induced seizures, as DBA2J mice are only susceptible to sound-induced seizures during a narrow developmental window (post-natal days 18-30). Thus, the Frings AGS-susceptible mouse seizures respond to a wide range of CNS-active drugs and display sound-induced seizures throughout their lifetime. In this regard, Frings AGS-susceptible mice are a highly useful screening model for the identification and characterization of compounds potentially effective against inherited epilepsy.
Male and female Frings audiogenic seizure-susceptible mice (18-25 g) are maintained in an in-house colony at the University of Utah. For each screening test, groups of 8 mice each are treated i.p. with varying doses of the investigational compound. At the time of peak effect as determined in the MES test (Test 4 in CF1 mice), individual mice are placed in a round plexiglass jar (diameter, 15 cm, height, 18 cm) and exposed to a sound stimulus of 110 decibels (11 KHz) delivered for 20 sec. Mice are observed for 25 sec for the presence or absence of hind limb tonic extension. Mice not displaying hind limb tonic extension are considered protected. The severity of a seizure may also be quantitated by assigning a numerical score to the observed response, e.g. no response—0; wild running for <10 sec—1; wild running for >10 sec—2; clonic seizure—3; forelimb extension/hind limb flexion—4; tonic seizure—5.

For `O=C1COc2cc(OCc3ccc(OC(F)F)cc3)ccc2N1` [Compound I(B)], the “Effect (% baseline)” value (MTLE mice; after 80 mg/kg) was 42.0 % baseline, the “Mean HPD Counts” value (MTLE mice; after 80 mg/kg) was 7.25 and the “Effect (% baseline)” value (MTLE mice; after 160 mg/kg) was 17.9 % baseline. The “Mean HPD Counts” value (MTLE mice; after 160 mg/kg) was 4.25, the “effect against spontaneous recurrent hippocampal paroxysmal discharges (HPD)” value (MTLE mice; dose of 125 mg/kg) was “effective” and the ED50 at 4 hours [1] was greater than 500 mg/kg. For the same compound, the “mechanical allodynia in the denervated paw (Von Frey test)” value [2] was “effective at reducing the mechanical allodynia”, the cold allodynia ([2]; neuropathic rats) was “significantly reduced” and the ED50 ([3]; Mus musculus, ip, sound-induced seizures) was 13 ± 2 mg/kg. For the same compound, the “effect on AGS” value ([3]; i.p.) was “dose-dependently blocks AGS”.
